# Source: patent publication US20210155670A1, “SYSTEMS AND METHODS FOR THE PREPARATION OF PEPTIDE-MHC-I COMPLEXES WITH NATIVE GLYCAN MODIFICATIONS” (The Regents of the University of California, priority 2019, published 2021)
# Entries after “also recorded” stand apart in the source; their conditions may differ. Read-outs that look alike come from different tables or passages of the source. Ends that are not written are not given here.
# Key:
# [1] = target: T1, HLA-A*68:02/TAPBPR complex (Homo sapiens, UniProt P04439+P61769, A269V/D140Y/D185E/E176V/E277Q/E87N/F33Y/G231S/I121R/I166T/I218V/L180W/N151K/P208A/P217A/Q86R/R138H/R169H/R297K/S129P/V36M); assay: Native gel shift assay of peptide binding to HLA-A*68:02/TAPBPR complex; settings: Example 2, 10-molar excess of peptide
# T1 construct: human beta-2 microglobulin signal peptide (N); TEV protease site (C, cleaved yes); FOS leucine zipper (C, cleaved yes); made in house; host or cells: CHO cells
# Text: CHO-derived HLA-A*02:01/TAPBPR complexes can be loaded with high-affinity TAX9 and MART-1 peptides (FIG. 11D). […] The two alleles have considerable sequence homology in the peptide-binding groove formed by the α1/α2 domains, resulting in a shared preference for a Val, Leu, Ala or Ile at the peptide anchor position 9, but marked variation at anchor position 2 where HLA-A*02:01 has a preference for Leu while HLA-A*68:02 prefers Thr (FIG. 11A). […] Structure-based modeling (Nerli and Sgourakis, bioRxiv, 2020.03.23.004176 (2020)) confirmed A-pocket hydrogen bonding interactions between peptide anchor position L2 with the K66 sidechain, Y7 with Y99 from HLA-A*02:01, and anchor position T2 with N66 and N63 from HLA-A*68:02 (FIG. 11B). According to the electrophoretic mobility shift assay, all predicted high-affinity peptides bound to HLA-A*02:01 and HLA-A*68:02 resulting in discrete pMHC-I protein bands. (FIG. 11C).
# Gels were imaged using an Innotech FluoChem2 system (Genetic Technologies Grover, Mo.).
# [2] = target: T2, HLA-A*02:01/TAPBPR complex (Homo sapiens, UniProt P04439+P61769, D140Y/D185E/D98H/E176V/E277Q/G131W/G231S/I119V/I121R/I166T/I218V/N151K/N90K/P208A/P217A/Q86G/Q94H/R138H/R169H); assay: Native gel shift assay of peptide binding to HLA-A*02:01/TAPBPR complex
# T2 construct: human beta-2 microglobulin signal peptide (N); TEV protease site (C, cleaved yes); FOS leucine zipper (C, cleaved yes); made in house; host or cells: CHO cells (CHO-K1s / CHO-K1s C1s-/-), co-transfected, secreted
# [3] = target: T3, HLA-A*24:02/TAPBPR complex (Homo sapiens, UniProt P04439+P61769, D101N/D140Y/E190D/F33S/G103R/G107R/I119L/I121M/L105A/N151K/N90K/Q86E/Q94H/R106L/R138H/R89G/T104I/V100E/W191G/Y123F); assay: Native gel electrophoresis of HLA-A*24:02/TAPBPR complex with peptides; assay type: binding; settings: FIG. 14c
# T3 construct: human beta-2 microglobulin signal peptide (N); TEV protease site (C, cleaved yes); FOS leucine zipper (C, cleaved yes); made in house; host or cells: CHO cells
# [4] = Example 2, 10-fold molar excess of peptide, native gel
sequence,measurement,setting,value
GLLGIGILTV [GM1],pMHC-I band formation in electrophoretic mobility shift assay,[1],significant binding
LLFGVPVYV [TAX9],native gel band shift of MHC-I (pMHC formation),[2],resulted in a band shift
same,pMHC-I band formation in electrophoretic mobility shift assay,[2]; [4],formation of discrete bands corresponding to properly conformed pMHC species; also recorded: can be loaded; also recorded: pMHC-I formation
RGPGRAFVFI [Peptide P18_I10],native gel band shift of MHC-I (pMHC formation),[2],did not
same,pMHC-I band formation in electrophoretic mobility shift assay,[2]; [4],non-binding
RYPLTFGWCF [Nef138-10],"complex dissociation in the presence of peptide, native gel",[3],complex dissociation
TLACFVLAAV,pMHC-I band formation in electrophoretic mobility shift assay,[2],little or no binding
VYGFVRACL [PHOX2B],"complex dissociation in the presence of peptide, native gel",[3],complex dissociation
WLMWLIINL,pMHC-I band formation in electrophoretic mobility shift assay,[2]; [4],little or no binding
"YPNVNIHNF [NIH p29, non-specific (NS) negative control peptide]",native gel band shift of MHC-I (pMHC formation),"[2]; Example 1, SEC purified unzippered complex, 5:1 molar ratio, 1 h room temperature",did not
same,pMHC-I band formation in electrophoretic mobility shift assay,[2]; [4],non-binding
